Test results as given in patent US20160281050A1, “METHODS FOR TREATING A CULTURE OF HAEMATOCOCCUS PLUVIALIS FOR CONTAMINATION USING SALT AND HYDROGEN PEROXIDE” (HELIAE DEVELOPMENT LLC, priority 2015, published 2016).
Read-outs that look alike come from different tables or passages of the source.

Experiments:
[1] = tested on: Haematococcus pluvialis (Strain 1) green swimmer cells
Description: Haematococcus pluvialis cultures containing green swimmer cells in open raceway pond bioreactors [identification numbers (#) 2210 and 2220] disposed in a greenhouse, using paddlewheel mixing, and operating in conditions: reactor volume of 16,000 L; Daily photosynthetically active radiation (PAR) of 57 mol m^−2 d^−1; pH of 7.5; and paddlewheel speed of 40%; were inoculated on the same day and cultured in growth conditions.
The culture of bioreactor #2330 was transferred to open raceway pond bioreactor #2420 disposed in a greenhouse, using paddlewheel mixing, and operating in conditions: reactor volume of 140,000 L; Daily PAR of 58 mol m^−2 d^−1; pH of 7.3; and paddlewheel speed of 70%); but the culture was not treated after the transfer. […] Bacteria including Pseudomonas, Flectobacillus, and Cytophaga were present in the bacterial community in both the bioreactors #2330 and #2420.

chytrids [2] = tested on: chytrids
Description: Culture samples of Haematococcus pluvialis (Strain 2) were collected on the second day of culture from open raceway bioreactor #2410 operating in conditions: reactor volume of 150,000 L; Daily PAR of 9.77 mol m^−2 d^−1; pH of 7.3; and paddlewheel speed of 70%. Culture samples were distributed into flasks for culturing, consisting of duplicate untreated controls and duplicate treatments. […] Samples were taken from the flask cultures daily to quantify % lysis and % chytrid infection and cell dry weight was quantified every other day for a duration of 11 days.

[3] = tested on: red cyst cells of Haematococcus pluvialis (Strain 2)
Description: (§1) The calculated concentrations of the hydrogen peroxide doses tested were 0.0105, 0.0140, 0.0175, 0.0210, and 0.0245 mL/L. The amount of cell lysis was quantified using visual observation under a microscope after 24, 48, and 72 hours.

[4] = tested on: Green swimmer cells of Haematococcus pluvialis (Strain 2)
Description: as §1

chytrids [5] = tested on: chytrids; remark: listed apart in the source
Description: Culture samples of Haematococcus pluvialis (Strain 2) were collected on the second day of the culture from open raceway bioreactor #2430 operating in conditions: reactor volume of 170,000 L; Daily PAR not measured; pH of 7.3; and paddlewheel speed of 70. The culture samples were distributed into flasks for culturing, consisting of duplicate untreated controls and duplicate treatments. […] Samples were taken from the flask cultures daily to quantify % lysis and % chytrid infection and cell dry weight was quantified every other day for a duration of 11 days.

[6] = dosed 0.015 mL/L; carboy and open raceway pond samples
[7] = bioreactor #2220, 0.0075 mL/L every 24 hours
[8] = 0.0105 mL/L 1 time per day, day 3
[9] = 0.0105 mL/L 1 time per day, day 4
[10] = 0.0105 mL/L 1 time per day, day 5
[11] = 0.0105 mL/L 1 time per day, day 6
[12] = 0.0105 mL/L 1 time per day, day 7
[13] = 0.0140 mL/L three times per day, 24 h
[14] = 0.0140 mL/L three times per day, 48 h
[15] = 0.0140 mL/L three times per day, 72 h
[16] = 0.0175 mL/L three times per day, 24 h
[17] = 0.0175 mL/L three times per day, 48 h
[18] = 0.0175 mL/L three times per day, 72 h
[19] = 0.0210 mL/L three times per day, 24 h
[20] = 0.0210 mL/L three times per day, 48 h
[21] = 0.0210 mL/L three times per day, 72 h
[22] = 0.0245 mL/L three times per day, 24 h
[23] = 0.0245 mL/L three times per day, 48 h
[24] = 0.0245 mL/L three times per day, 72 h

Substance: hydrogen peroxide [H2O2]
- duration of high motility compared with untreated culture #2210 [1, 7]: one day longer
- motility retained [1, 7]: 95%
- time of chytrid detection compared with untreated culture #2310 ([1]; bioreactor #2320, 0.0075 mL/L every 24 hours): three days later
- onset of high amounts of cell lysis ([1]; bioreactor #2320, treated culture): not until five days after the treatment ended
- decrease of motility ([1]; bioreactor #2330, 0.0075 mL/L, after the first treatment): about 30%
- lysis ([1]; bioreactor #2330, 0.0075 mL/L, after the second treatment): 60%
- Chytrid sporangia present, time after hydrogen peroxide treatment ended ([1]; bioreactors #2330/#2420, end of the culture period): 7 days
- Chytrid sporangia in the culture ([1]; bioreactors #2330/#2430, 0.0075 mL/L once before and twice after transfer): not detected
- time high amounts of cell lysis remained high ([1]; bioreactors #2330/#2430, treatment began after lysis had occurred): 4 days
- % Chytrid infection (chytrids [2]; 0.0105 mL/L 1 time daily for 3 days, day 1): 0.0 ± 0.0%
- % Chytrid infection (chytrids [2]; 0.0105 mL/L 1 time daily for 3 days, day 2): 0.0 ± 0.0%
- % Chytrid infection (chytrids [2]; 0.0105 mL/L 1 time daily for 3 days, day 3): 0.0 ± 0.0%
- % Chytrid infection (chytrids [2]; 0.0105 mL/L 1 time daily for 3 days, day 4): 0.0 ± 0.0%
- % Chytrid infection (chytrids [2]; 0.0105 mL/L 1 time daily for 3 days, day 5): 0.8 ± 1.2%
- % Chytrid infection (chytrids [2]; 0.0105 mL/L 1 time daily for 3 days, day 6): 0.0 ± 0.0%
- % Chytrid infection (chytrids [2]; 0.0105 mL/L 1 time daily for 3 days, day 7): 1.7 ± 2.4%
- % Chytrid infection (chytrids [2]; 0.0105 mL/L 1 time every other day, day 1): 0.0 ± 0.0%
- % Chytrid infection (chytrids [2]; 0.0105 mL/L 1 time every other day, day 2): 0.0 ± 0.0%
- % Chytrid infection (chytrids [2]; 0.0105 mL/L 1 time every other day, day 3): 2.5 ± 1.2%
- % Chytrid infection (chytrids [2]; 0.0105 mL/L 1 time every other day, day 4): 0.0 ± 0.0%
- % Chytrid infection (chytrids [2]; 0.0105 mL/L 1 time every other day, day 5): 0.8 ± 1.2%
- % Chytrid infection (chytrids [2]; 0.0105 mL/L 1 time every other day, day 6): 3.3 ± 0.0%
- % Chytrid infection (chytrids [2]; 0.0105 mL/L 1 time every other day, day 7): 0.8 ± 1.2%
- % Chytrid infection (chytrids [2]; 0.0105 mL/L 1 time per day, day 1): 0.0 ± 0.0%
- % Chytrid infection (chytrids [2]; 0.0105 mL/L 1 time per day, day 2): 0.0 ± 0.0%
- % Chytrid infection (chytrids [2]; [8]): 0.0 ± 0.0%
- % Chytrid infection (chytrids [2]; [9]): 0.0 ± 0.0%
- % Chytrid infection (chytrids [2]; [10]): 2.5 ± 3.5%
- % Chytrid infection (chytrids [2]; [11]): 0.0 ± 0.0%
- % Chytrid infection (chytrids [2]; [12]): 0.0 ± 0.0%
- chytrid infection (chytrids [2]; all treated flasks, 0.0105 mL/L): below 5%
- % Cell lysis (±1SE) [3, 13]: 1.7% ± 1.0%
- % Cell lysis (±1SE) [3, 14]: 0.8% ± 0.8%
- % Cell lysis (±1SE) [3, 15]: 3.3% ± 0.0%
- % Cell lysis (±1SE) ([3]; 0.0140 mL/L three times per day, 96 h): 3.3% ± 1.7%
- % Cell lysis (±1SE) [3, 16]: 1.1% ± 0.6%
- % Cell lysis (±1SE) [3, 17]: 3.3% ± 1.7%
- % Cell lysis (±1SE) [3, 18]: 5.8% ± 5.8%
- % Cell lysis (±1SE) ([3]; 0.0175 mL/L three times per day, 96 h): 5.8% ± 2.5%
- % Cell lysis (±1SE) [3, 19]: 3.9% ± 2.0%
- % Cell lysis (±1SE) [3, 20]: 0.8% ± 0.8%
- % Cell lysis (±1SE) [3, 21]: 1.7% ± 0.0%
- % Cell lysis (±1SE) ([3]; 0.0210 mL/L three times per day, 96 h): 18.3% ± 1.7%
- % Cell lysis (±1SE) [3, 22]: 3.9% ± 0.6%
- % Cell lysis (±1SE) [3, 23]: 5.0% ± 1.7%
- % Cell lysis (±1SE) [3, 24]: 9.2% ± 0.8%
- % Cell lysis (±1SE) ([3]; 0.0245 mL/L three times per day, 96 h): 51.7% ± 5.0%
- cell lysis level ([3]; dosages at or above 0.0175 mL/L, after 48-96 hours): above 10%
- cell lysis level ([3]; dosages below 0.0175 mL/L, for at least 96 hours): below 10%
- % Cell lysis (±1SE) ([4]; 0.0105 mL/L three times per day, 24 h): 3.3% ± 1.7%
- % Cell lysis (±1SE) ([4]; 0.0105 mL/L three times per day, 48 h): 5.0% ± 1.7%
- % Cell lysis (±1SE) ([4]; 0.0105 mL/L three times per day, 72 h): 3.3% ± 0.0%
- cell lysis level ([4]; 0.0105 mL/L, for at least 72 hours): below 10%
- % Cell lysis (±1SE) [4, 13]: 4.2% ± 0.8%
- % Cell lysis (±1SE) [4, 14]: 5.8% ± 2.5%
- % Cell lysis (±1SE) [4, 15]: 9.2% ± 4.2%
- % Cell lysis (±1SE) [4, 16]: 2.5% ± 0.8%
- % Cell lysis (±1SE) [4, 17]: 9.2% ± 2.5%
- % Cell lysis (±1SE) [4, 18]: 13.3% ± 3.3%
- % Cell lysis (±1SE) [4, 19]: 4.2% ± 2.5%
- % Cell lysis (±1SE) [4, 20]: 6.7% ± 1.7%
- % Cell lysis (±1SE) [4, 21]: 20.0% ± 3.3%
- cell lysis level ([4]; 0.0210 mL/L, for 48 hours): below 10%
- % Cell lysis (±1SE) [4, 22]: 15.0% ± 0.0%
- % Cell lysis (±1SE) [4, 23]: 22.5% ± 0.8%
- % Cell lysis (±1SE) [4, 24]: 27.5% ± 2.5%
- % Chytrid infection (chytrids [5]; 0.0105 mL/L 1 time per day for 3 d then every other day, day 0): 0.0 ± 0.0%
- % Chytrid infection (chytrids [5]; 0.0105 mL/L 1 time per day for 3 d then every other day, day 3): 0.0 ± 0.0%
- % Chytrid infection (chytrids [5]; 0.0105 mL/L 1 time per day for 3 d then every other day, day 4): 0.8 ± 1.2%
- % Chytrid infection (chytrids [5]; 0.0105 mL/L 1 time per day for 3 d then every other day, day 5): 5.0 ± 2.4%
- % Chytrid infection (chytrids [5]; 0.0105 mL/L 1 time per day for 3 d then every other day, day 6): 2.5 ± 1.2%
- % Chytrid infection (chytrids [5]; 0.0105 mL/L 1 time per day for 3 d then every other day, day 7): 0.0 ± 0.0%
- % Chytrid infection (chytrids [5]; 0.0105 mL/L 1 time per day for 3 d then every other day, day 8): 0.0 ± 0.0%
- % Chytrid infection (chytrids [5]; 0.0105 mL/L 1 time per day for 3 d then every other day, day 9): 2.5 ± 3.5%
- % Chytrid infection (chytrids [5]; 0.0105 mL/L 1 time per day for 3 d then every other day, day 10): 1.7 ± 2.4%
- % Chytrid infection (chytrids [5]; 0.0105 mL/L 1 time per day, day 0): 0.0 ± 0.0%
- % Chytrid infection (chytrids [5]; [8]): 0.0 ± 0.0%
- % Chytrid infection (chytrids [5]; [9]): 0.8 ± 1.2%
- % Chytrid infection (chytrids [5]; [10]): 0.8 ± 1.2%
- % Chytrid infection (chytrids [5]; [11]): 1.7 ± 2.4%
- % Chytrid infection (chytrids [5]; [12]): 3.3 ± 0.0%
- % Chytrid infection (chytrids [5]; 0.0105 mL/L 1 time per day, day 8): 0.0 ± 0.0%
- % Chytrid infection (chytrids [5]; 0.0105 mL/L 1 time per day, day 9): 0.8 ± 1.2%
- % Chytrid infection (chytrids [5]; 0.0105 mL/L 1 time per day, day 10): 0.0 ± 0.0%
- % Chytrid infection (chytrids [5]; 0.0140 mL/L 1 time per day for 3 d then every other day, day 0): 0.0 ± 0.0%
- % Chytrid infection (chytrids [5]; 0.0140 mL/L 1 time per day for 3 d then every other day, day 3): 0.0 ± 0.0%
- % Chytrid infection (chytrids [5]; 0.0140 mL/L 1 time per day for 3 d then every other day, day 4): 0.0 ± 0.0%
- % Chytrid infection (chytrids [5]; 0.0140 mL/L 1 time per day for 3 d then every other day, day 5): 0.0 ± 0.0%
- % Chytrid infection (chytrids [5]; 0.0140 mL/L 1 time per day for 3 d then every other day, day 6): 1.7 ± 2.4%
- % Chytrid infection (chytrids [5]; 0.0140 mL/L 1 time per day for 3 d then every other day, day 7): 0.0 ± 0.0%
- % Chytrid infection (chytrids [5]; 0.0140 mL/L 1 time per day for 3 d then every other day, day 8): 0.8 ± 1.2%
- % Chytrid infection (chytrids [5]; 0.0140 mL/L 1 time per day for 3 d then every other day, day 9): 0.0 ± 0.0%
- % Chytrid infection (chytrids [5]; 0.0140 mL/L 1 time per day for 3 d then every other day, day 10): 0.0 ± 0.0%
- % Chytrid infection (chytrids [5]; 0.0140 mL/L 1 time per day, day 0): 0.0 ± 0.0%
- % Chytrid infection (chytrids [5]; 0.0140 mL/L 1 time per day, day 3): 0.0 ± 0.0%
- % Chytrid infection (chytrids [5]; 0.0140 mL/L 1 time per day, day 4): 0.0 ± 0.0%
- % Chytrid infection (chytrids [5]; 0.0140 mL/L 1 time per day, day 6): 0.0 ± 0.0%
- % Chytrid infection (chytrids [5]; 0.0140 mL/L 1 time per day, day 7): 1.7 ± 2.4%
- % Chytrid infection (chytrids [5]; 0.0140 mL/L 1 time per day, day 8): 0.8 ± 1.2%
- % Chytrid infection (chytrids [5]; 0.0140 mL/L 1 time per day, day 9): 0.8 ± 1.2%
- % Chytrid infection (chytrids [5]; 0.0140 mL/L 1 time per day, day 10): 0.0 ± 0.0%
- % Chytrid infection (chytrids [5]; 0.0175 mL/L 1 time per day for 2 d then every other, day 0): 0.0 ± 0.0%
- % Chytrid infection (chytrids [5]; 0.0175 mL/L 1 time per day for 2 d then every other, day 3): 0.0 ± 0.0%
- % Chytrid infection (chytrids [5]; 0.0175 mL/L 1 time per day for 2 d then every other, day 4): 0.0 ± 0.0%
- % Chytrid infection (chytrids [5]; 0.0175 mL/L 1 time per day for 2 d then every other, day 5): 0.0 ± 0.0%
- % Chytrid infection (chytrids [5]; 0.0175 mL/L 1 time per day for 2 d then every other, day 6): 0.8 ± 1.2%
- chytrid infection (chytrids [5]; all treated flasks): under 10%
- time to concentration below detectable limits [6]: 120 min
- time to concentration below level expected to be effective against uniflagellates (calculated concentration 0.0075 mL/L) [6]: 30 min
